In US20120184537A1, “[1,4]-BENZODIAZEPINES AS VASOPRESSIN V2 RECEPTOR ANTAGONISTS” (SHIRE-MOVETIS N.V., priority 2009, published 2012):

Experiments:
[1] = biological target: T1, human V1a receptors (Homo sapiens, UniProt P37288); test: Human V1a agonist effect (intracellular calcium mobilization in transfected CHO cells); assay type: cell-based; set-up: expressed in transfected cells; host or cells: CHO cells; conditions: compound at 1 μM, control response to 1 μM AVP, Ca2+ fluorescence
Experimental: (§1) Intracellular calcium mobilization was measured in CHO cells transfected to express either human V1a receptors (supra), in analogy with the Measurement of intracellular Ca^2+ concentration as described in Tahara A., et al., (1998) Brit. J. Pharmacol., 125; 1463-1470; which is incorporated herein by reference.
(§2) The cells are suspended in DMEM buffer (Invitrogen) complemented with 0.1% fetal calf serum, then distributed in microplates at a density of 4.5×10^4 cells/well.
(§3) The fluorescent probe (Calcium4, Molecular Device) mixed with probenicid in HBSS buffer (Invitrogen) complemented with 20 mM Hepes (Invitrogen) (pH 7.4) is then added into each well and equilibrated with the cells for 60 min at 37° C. then 15 min at 22° C. Thereafter, the assay plates are positioned in a microplate reader (CellLux, PerkinElmer) which is used for the addition of the test compound, reference agonist or HBSS buffer (basal control), and for the measurements of changes in fluorescence intensity which varies proportionally to the free cytosolic Ca^2+ ion concentration. For stimulated control measurements, AVP at 1 μM is added in separate assay wells.
The results are expressed as a percent of the control response to 1 μM AVP.

[2] = biological target: T2, human V2 receptor (Homo sapiens, UniProt P30518); test: Human V2 agonist effect (cAMP accumulation in transfected CHO cells); assay type: cell-based; set-up: expressed in transfected cells; host or cells: CHO cells; conditions: compound at 1 μM, control response to 1 nM AVP
Experimental: (§4) The accumulation of cAMP was measured in transfected CHO cells (supra) expressing the human V2 receptor in analogy with the cAMP Assay procedures described in Cotte N., et al., (1998) J. Biol. Chem., 273; 29462-29468; which is incorporated herein by reference.
The cells are suspended in HBSS buffer (Invitrogen) complemented with 20 mM HEPES 20 (pH 7.4), 0.01% BSA and 500 μM IBMX, then distributed in microplates at a density of 3×10^3 cells/well and incubated for 30 min at 22° C. in the absence (control) or presence of the test compound or the reference agonist. For stimulated control measurement, separate assay wells contain AVP at a final concentration of 1 nM. Following incubation, the cells are lysed and the fluorescence acceptor (D2-labeled cAMP) and fluorescence donor (anti-cAMP antibody labeled with europium cryptate) are added. After 60 min at 22° C., the fluorescence transfer is measured at λex=337 nm and λem=620 and 665 nm using a microplate reader (Rubystar, BMG). The cAMP concentration is determined by dividing the signal measured at 665 nm by that measured at 620 nm (ratio).
The results are expressed as a percent of the control response to 1 nM AVP.

[3] = biological target: T1, human V1a receptors; test: Human V1a antagonist effect (AVP-induced calcium mobilization in transfected CHO cells); assay type: cell-based; set-up: expressed in transfected cells; host or cells: CHO cells; conditions: inhibition of response to 10 nM AVP, Ca2+ fluorescence, read-out: V1a antagonism IC50
Experimental: as §1, §2
as §3, with “compound” for “compound, reference agonist”, “then 5 min later 10 nM AVP or HBSS buffer (control),” for “(basal control),”, “Ca2+” for “Ca^2+”, “concentration.” for “concentration. For stimulated control measurements, AVP at 1 μM is added in separate assay wells.”
The standard reference antagonist is [d(CH2)^51,Tyr(Me)^2,Arg^8]-AVP, which is tested in each experiment at several concentrations to generate a concentration-response curve from which its IC50 value is calculated.

[4] = biological target: T2, human V2 receptor; test: Human V2 antagonist effect (AVP-induced cAMP accumulation in transfected CHO cells); assay type: cell-based; set-up: expressed in transfected cells; host or cells: CHO cells; conditions: inhibition of control response to 0.03 nM AVP, read-out: V2 antagonism IC50
Experimental: as §4
The cells are suspended in HBSS buffer (Invitrogen) complemented with 20 mM HEPES (pH 7.4), 0.01% and 500 μM IBMX, then distributed in microplates at a density of 3×10^3 cells/well and preincubated for 5 min at 22° C. in the absence (control) or presence of the test compound or the reference antagonist. Thereafter, the reference agonist AVP is added at a final concentration of 0.03 nM.
Following 30 min incubation at 22° C., the cells are lysed and the fluorescence acceptor (D2-labeled cAMP) and fluorescence donor (anti-cAMP antibody labeled with europium cryptate) are added. After 60 min at 22° C., the fluorescence transfer is measured at λex=337 nm and λem=620 and 665 nm using a microplate reader (Rubystar, BMG). The cAMP concentration is determined by dividing the signal measured at 665 nm by that measured at 620 nm (ratio). The results are expressed as a percent inhibition of the control response to 0.03 nM AVP.
The standard reference antagonist is [adamantaneacetyl^1,O-Et-D-Tyr^2,Val^4,aminobutyryl^6]-AVP, which is tested in each experiment at several concentrations to generate a concentration-response curve from which its IC50 value is calculated.

[5] = biological target: T1, human V1a receptors; test: Human vasopressin V1a receptor binding assay ([3H]AVP displacement); set-up: expressed in transfected cells; host or cells: CHO cells (membrane homogenates); conditions: displacement of 0.3 nM [3H]AVP, CHO cell membranes, 22° C.
Experimental: (§5) The in vitro inhibition of AVP receptor binding was assessed by using recombinant human V1a or V2 receptor preparations derived from the membranes of transfected CHO cells. Compounds were assessed for their ability to displace [^3H]-arginine vasopressin from plasma membrane preparations of said CHO transfected cells in analogy with the Binding Assay procedures described in Cotte N., et al., (1998) J. Biol. Chem., 273; 29462-29468 and Tahara A., et al., (1998) Brit. J. Pharmacol., 125; 1463-1470; which are incorporated herein by reference.
(§6) Cell membrane homogenates (40 μg protein) are incubated for min at 22° C. with 0.3 nM [^3H]AVP in the absence or presence of the test compound in a buffer containing 50 mM Tris-HCl (pH 7.4), 5 mM MgCl2 and 0.1% BSA. Nonspecific binding is determined in the presence of 1 μM AVP. Following incubation, the samples are filtered rapidly under vacuum through glass fiber filters (GF/B, Packard) presoaked with 0.3% PEI and rinsed three times with ice-cold 50 mM Tris-HCl using a 96-sample cell harvester (Unifilter, Packard). The filters are dried then counted for radioactivity in a scintillation counter (Topcount, Packard) using a scintillation cocktail (Microscint 0, Packard).
(§7) The standard reference compound is AVP (V2 receptor binding assay) or [d(CH2)51,Tyr(Me)2]-AVP (V1a receptor binding assay), which is tested in each experiment at several concentrations to obtain a competition curve from which its IC50 is calculated.

[6] = biological target: T2, human V2 receptor; test: Human vasopressin V2 receptor binding assay ([3H]AVP displacement); set-up: expressed in transfected cells; host or cells: CHO cells (membrane homogenates); conditions: displacement of 0.3 nM [3H]AVP, CHO cell membranes, 120 min at 22° C.
Experimental: as §5
as §6, with “membrane homogenates (16 μg protein)” for “membrane homogenates (40 μg protein)”, “incubated for 120 min at” for “incubated for min at”
as §7

T1 sequence (P37288 whole entry): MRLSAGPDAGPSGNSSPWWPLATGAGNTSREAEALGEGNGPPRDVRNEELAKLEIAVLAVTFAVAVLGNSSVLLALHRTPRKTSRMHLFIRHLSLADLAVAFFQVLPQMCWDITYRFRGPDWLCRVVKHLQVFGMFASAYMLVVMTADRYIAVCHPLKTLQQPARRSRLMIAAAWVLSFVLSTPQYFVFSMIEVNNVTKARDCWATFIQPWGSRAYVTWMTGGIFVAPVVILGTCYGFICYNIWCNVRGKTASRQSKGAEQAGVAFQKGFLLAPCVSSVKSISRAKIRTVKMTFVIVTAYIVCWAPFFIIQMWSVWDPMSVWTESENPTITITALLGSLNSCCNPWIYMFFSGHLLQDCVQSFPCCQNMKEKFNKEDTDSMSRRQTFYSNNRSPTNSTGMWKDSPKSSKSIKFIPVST

Compound	V1a agonist effect, % of control agonist response (AVP) [1] [%]	V2 agonist effect, % of control agonist response (AVP) [2] [%]	IC50 [3] [µM]	IC50 [4] [nM]	IC50 [5] [nM]	IC50 [6] [nM]
N-[3-chloro-4-({13-oxa-1,9-diazatricyclo[9.4.0.0^{3,8}]pentadeca-1,3,5,7-tetraen-9-yl}carbonyl)phenyl]-2-phenylbenzamide [Compound 21]	–	−1.5	> 100	410	780	19
O=C1CN2Cc3ccccc3N(C(=O)c3ccc(NC(=O)c4ccccc4-c4ccccc4)cc3Cl)C[C@H]2CO1 [Compound 16, (S)—N-(3-chloro-4-(3-oxo-3,4,6,11,12,12a-hexahydro-1H-benzo[e][1,4]oxazino[4,3-a][1,4]diazepine-11-carbonyl)phenyl)biphenyl-2-carboxamide]	−1	0	> 100	13	240	1.9

More lines, now with the values ahead:

V1a agonist effect, % of control agonist response (AVP) [1] [%]	V2 agonist effect, % of control agonist response (AVP) [2] [%]	IC50 [3] [µM]	IC50 [4] [nM]	IC50 [5] [nM]	IC50 [6] [nM]	Compound
−1	0	20	11	210	2.5	O=C(Nc1ccc(C(=O)N2C[C@H]3COC(O)CN3Cc3ccccc32)c(Cl)c1)c1ccccc1-c1ccccc1 (stereo partly drawn) [Compound 19, (S)—N-(3-chloro-4-(3-hydroxy-3,4,6,11,12,12a-hexahydro-1H-benzo[e][1,4]oxazino[4,3-a][1,4]diazepine-11-carbonyl)phenyl)biphenyl-2-carboxamide]
−1	−1	> 100	57	3800	5.8	O=C(Nc1ccc(C(=O)N2C[C@@H](CO)NCc3ccccc32)c(Cl)c1)c1ccccc1-c1ccccc1 [Compound 14, (S)—N-(3-chloro-4-(3-(hydroxymethyl)-2,3,4,5-tetrahydro-1H-benzo[e][1,4]diazepine-1-carbonyl)phenyl)biphenyl-2-carboxamide]
−1	−1	–	2800	–	120	O=C(O)CN1Cc2ccccc2N(C(=O)c2ccc(NC(=O)c3ccccc3-c3ccccc3)cc2Cl)C[C@H]1CO [Compound 17, (S)-2-(1-(4-biphenyl-2-ylcarboxamido-2-chlorobenzoyl)-3-(hydroxymethyl)-2,3-dihydro-1H-benzo[e][1,4]diazepin-4(5H)-yl)acetic acid]
